Measurements published in patent US8278327B2, “PDE10 inhibitors and related compositions and methods” (Omeros Corporation, priority 2006, dated 2012).

Key:
[1] = molecular target: T1, recombinant human PDE 10A1 (Homo sapiens, UniProt Q9Y233); test: PDE10 biochemical assay (modified two-step method of Thompson and Appleman, or SPA with [3H]-cGMP); details: PDE10 inhibition
T1 construct: made in house; host or cells: Sf9 insect cells, baculovirus
Method: Compounds of this invention may be assayed to determine their IC50 values by a modification of the two-step method of Thompson and Appleman (Biochemistry 10; 311-316; 1971). In short, cAMP is spiked with (^3H)cAMP and incubated with PDE10 and various concentrations of a compound of structure (I). After the appropriate incubation time, the reaction is terminated by heating. The mixture is then subjected to treatment with snake venom phosphatase. The phosphatase hydrolyzes any AMP in the mixture, but leaves unreacted cAMP intact. Thus, by separating cAMP from the mixture and determining its concentration (by radiography), the percent of inhibition can be determined. IO50 values can be calculated by performing the experiment at several concentrations using standard graphical means. A detailed description of the actual technique used for IC50 assays are shown in Example 8.
The phosphodiesterase (PDE) assay was performed using recombinant human PDE 1A3, 2A3, 3 catalytic region, 4 catalytic region, 5 catalytic region, 7A, 8A, 9A2, 10A1 and 11A1 enzymes expressed in a baculoviral system using Sf9 cells. PDE activity was measured using a modification of the two-step method of Thompson and Appleman described above which was adapted for 96 well plate format. […] The final assay volume was 110 μl with assay buffer (10 mM MgCl2; 40 mM Tris.HCl; pH 7.4). Reactions were initiated with enzyme and incubated with (^3H)—substrate and substance for 20 minutes at 30° C. The reaction was terminated by denaturing the enzyme (heating the reaction to 70° C. for 2 minutes). […] The soluble fraction (50 μl) was then added to microscint-20 (200 μl) and counted on a Top Count Plate reader. Radioactivity units were plotted against inhibitor concentration and IC50 values obtained using Graph Pad Prism software.
Alternatively, phosphodiesterase activity was measured by scintillation proximity assay (SPA) with [^3H]-cGMP as substrate. […] Inhibition was evaluated at 8 concentrations in duplicate. […] The mixture was shaken, allowed to settle for 3 hours, and counted in a Wallac plate counter. […]

C57BL/6 male mice [2] = test: PCP-induced hyperactivity; assay type: in vivo; details: PCP 5 mg/kg, p<0.001
Method: Psychostimulant-induced hyperactivity is measured by injecting animals with PCP or amphetamine and monitoring the animals' activity levels in the VersaMax chambers (Accuscan Instruments, Columbus, Ohio) measuring 40×40 cm. Locomotor activity is detected by photobeam breaks as the animal crosses each beam. The animal is placed in the center of the field and left undisturbed for a period of time (20 min to 2 hr) to measure its spontaneous activity in a novel environment. Measurements used to assess locomotor activity include: horizontal activity, total distance traveled, vertical activity (rearing events—animal raises up on hindlimbs), rotation, stereotypy, and distance traveled in the center compared to total distance traveled (center:total distance ratio). Psychostimulants, including dopamine agonist amphetamine and NMDA antagonist PCP, induce psychosis-like conditions manifested as hyperactivity and increased stereotypic behavior. Known antipsychotics are able to reverse psychostimulant-induced hyperactivity and increased stereotypy.

C57BL/6 male mice [3] = test: Conditioned avoidance response (CAR); assay type: in vivo
Excerpt: Conditioned avoidance response (CAR) is a behavioral test to evaluate antipsychotic effect of a test compound. It utilizes a shuttle box (Med Associates, St. Albans, Vt.) with two equal chambers separated by a retractable door. Each chamber is fitted with metal grid floor that is capable of delivering electric shocks independently. A computer program is used to implement the testing paradigm as well as record the animal's movement between the two chambers through infrared beam sensors. The testing paradigm is as the follows. A mouse is placed into one chamber. A light (conditioned stimulus, CS) comes on. Five seconds later, mild electric shocks (0.4 mA) (unconditioned stimulus, US) are delivered to the chamber where the mouse is located (as detected by infrared beams) until the mouse escapes to the adjacent chamber or until 10 sec has elapsed. The US and CS always co-terminate. With randomized inter-trial intervals averaging 15 sec, 30 such CS-US pairing trials are given to each mouse each day. For each trial, an escape response is registered if the mouse crosses to the other chamber after being shocked (i.e., during the 10-sec US period), and an avoidance response is registered if the mouse crosses to the other chamber during the first 5-sec CS only period. The animals are trained in such paradigm for 15-20 days, during which the average percentage of avoidance responses will improve to 60-80%. […] These trained animals are then used for compound testing using the same paradigm.
C57BL/6 male mice were trained in the CAR paradigm to predict and avoid the noxious stimulus, reaching a plateau of approximately 20-25 avoidance responses per 30 trials (“training plateau”) each day. The mice were then injected with compound or vehicle via i.p., and 20 minutes later they were tested for 30 trials in the CAR paradigm. Vehicle treatment and compound treatment were given to the same animals on alternating days, and the effect of compound in reducing avoidance response was analyzed through within-subject comparison (paired t-test).

C57BL/6 male mice [4] = test: Amphetamine-induced hyperactivity; assay type: in vivo; details: 50 mg/kg i.p., amphetamine 5 mg/kg, vs vehicle+amph control, p<0.01
C57BL/6 male mice [5] = details: 50 mg/kg i.p., 30 min after injection, vs vehicle control
C57BL/6 male mice [6] = test: Novel object recognition test (PCP-disrupted); assay type: in vivo; details: 10 mg/kg i.p. with PCP 5 mg/kg, tested 24 h later, p<0.01 vs PCP-treated group
Method: The antipsychotic effect of a test compound may also be evaluated by a novel object recognition test. In a novel object recognition test, mice are housed singly for 1-2 days and then injected with vehicle, PCP, or PCP plus the test compound. Twenty minutes after injection, the mice are presented with and allowed to explore two identical objects for 30 minutes. At the end of the exploration period the objects are removed. Twenty-four hours later each mouse is presented with a pair of objects, one familiar and one novel. After a variable delay, the mice begin to explore the objects. The time exploring each object is measured for 4 minutes starting from the first approach to either object. The fraction of total exploration time spent studying the novel object is recorded as a measure of novelty recognition.
At the end of the exploration period, the objects were removed. Twenty-four hours later, each mouse was presented with a pair of objects, one familiar and one novel, and the time exploring each object was measured for 4 minutes starting from the first approach to either object.

PDE10 = details: Soderling and Beavo 2000, read-out: IC50 (50% inhibitory concentration); cited from earlier work
[7] = 50 mg/kg i.p., vs vehicle+PCP control
[8] = 0.2 mg/kg i.p., vs vehicle+PCP control

T1 sequence (Q9Y233 1-779 isoform Q9Y233-1): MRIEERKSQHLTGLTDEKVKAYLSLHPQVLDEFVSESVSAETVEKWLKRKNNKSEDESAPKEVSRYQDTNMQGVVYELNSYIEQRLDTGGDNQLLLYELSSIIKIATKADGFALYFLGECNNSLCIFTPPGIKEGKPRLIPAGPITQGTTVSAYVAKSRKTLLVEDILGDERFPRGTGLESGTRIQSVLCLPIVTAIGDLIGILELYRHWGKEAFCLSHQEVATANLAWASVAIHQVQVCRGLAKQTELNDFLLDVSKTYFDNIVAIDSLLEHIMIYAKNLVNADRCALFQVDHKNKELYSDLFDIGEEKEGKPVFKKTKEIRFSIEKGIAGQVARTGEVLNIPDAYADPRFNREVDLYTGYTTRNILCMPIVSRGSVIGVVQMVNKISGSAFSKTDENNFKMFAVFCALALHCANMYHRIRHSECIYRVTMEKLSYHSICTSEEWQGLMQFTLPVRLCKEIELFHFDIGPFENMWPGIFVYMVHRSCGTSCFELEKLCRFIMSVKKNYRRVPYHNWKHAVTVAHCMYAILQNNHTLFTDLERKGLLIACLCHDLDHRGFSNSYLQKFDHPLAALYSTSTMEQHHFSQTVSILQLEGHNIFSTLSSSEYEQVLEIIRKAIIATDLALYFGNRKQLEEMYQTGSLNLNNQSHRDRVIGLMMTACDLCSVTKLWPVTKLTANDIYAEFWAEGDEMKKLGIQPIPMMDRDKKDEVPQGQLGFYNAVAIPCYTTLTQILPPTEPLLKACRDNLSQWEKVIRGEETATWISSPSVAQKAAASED

**Q.** Which IC50 [1] does the source give for `COc1cc(/C=N/NC(=O)CC2Sc3ccccc3NC2=O)cc(OC)c1OC` (stereo not drawn) [Compound 1-1, (E)-2-(3-oxo-3,4-dihydro-2H-benzo[B][1,4]thiazin-2-yl)-N′-(3,4,5-trimethoxybenzylidene)acetohydrazide] here?
**A.** ≤ 1000 nM

**Q.** With `CCOc1ccc(/C=N/NC(=O)CSc2nc3ccccc3n2Cc2ccccc2)cc1OC` [Compound 4-1, (E)-2-(1-benzyl-1H-benzo[d]imidazol-2-ylthio)-N′-(4-ethoxy-3-methoxybenzylidene)acetohydrazide] as the compound, how does the IC50 [1] read?
**A.** ≤ 1000 nM

**Q.** Which IC50 [1] does the source give for `COc1ccc(/C=N/NC(=O)CSc2cc(C)nc3ccccc23)cc1OC` [Compound 5-1, (E)-N′-(3,4-dimethoxybenzylidene)-2-(2-methylquinolin-4-ylthio)acetohydrazide] here?
**A.** ≤ 1000 nM

**Q.** What about the “hyperactivity induced by PCP” value (C57BL/6 male mice [2]; [7]) of the same compound?
**A.** completely abolishes

**Q.** What about the “stereotypy induced by PCP” value (C57BL/6 male mice [2]; [7]) of the same compound?
**A.** completely abolishes

**Q.** And the “number of avoidance response” value (C57BL/6 male mice [3]; 30 mg/kg i.p., tested 20 min later, 30 trials, p<0.001)?
**A.** significantly reduces

**Q.** What about the “hyperactivity induced by amphetamine” value (C57BL/6 male mice [4]) of the same compound?
**A.** partially but significantly reduce

**Q.** And the “stereotypy induced by amphetamine” value (C57BL/6 male mice [4])?
**A.** partially but significantly reduce

**Q.** What about the startle response (C57BL/6 male mice [5]) of the same compound?
**A.** does not affect

**Q.** What about the “PPI at 3 different prepulse levels” value (C57BL/6 male mice [5]; p<0.05, p<0.01) of the same compound?
**A.** significantly increases

**Q.** For `COc1cc(/C=N/NC(=O)CSc2cc(C)nc3ccccc23)cc(OC)c1O` [Compound 5-110], which “hyperactivity induced by PCP” value (C57BL/6 male mice [2]; 30 mg/kg) is on record?
**A.** significantly reduces

**Q.** And the “stereotypy induced by PCP” value (C57BL/6 male mice [2]; 30 mg/kg)?
**A.** significantly reduces

**Q.** And the “number of avoidance response” value (C57BL/6 male mice [3]; 10 mg/kg, procedure as in Example 12, p<0.01)?
**A.** significantly reduces

**Q.** With `COc1ccc2nc(C)cc(SCC(=O)NN=Cc3cc(OC)c(OC)c(OC)c3)c2c1` [Compound 5-184] as the compound, how does the “novel object recognition performance” value (C57BL/6 male mice [6]) read?
**A.** able to restore

**Q.** Which IC50 (PDE10) does the source give for `CC(C)Cn1c(=O)n(C)c(=O)c2[nH]cnc21` [IBMX] here?
**A.** 2600 nM

**Q.** What does the source list for `O=C(CCCN1CCC(O)(c2ccc(Cl)cc2)CC1)c1ccc(F)cc1` [haloperidol, reference compound]?
**A.** hyperactivity induced by PCP (C57BL/6 male mice [2]; [8]): significantly reduce; stereotypy induced by PCP (C57BL/6 male mice [2]; [8]): significantly reduce; number of avoidance response (C57BL/6 male mice [3]; 0.15 mg/kg i.p., tested 20 min later, 30 trials, p<0.001): significantly reduces
